Test results from patent US9907857B2, “Peptide having cell membrane penetrating activity” (EWHA UNIVERSITY-INDUSTRY COLLABORATION FOUNDATION, priority 2006, dated 2018).

Tests used:
Format in all cases: cell-based
HeLa cells [1] = assay: Cell penetrating efficiency of rhodamine-labelled TCTP-derived peptides, microplate fluorescence reader; conditions: for intracellular translocation, dependence on concentration: 0-100 μM, 15 minutes or 2 hours; for concentration at which translocation was saturated: 2 hour treatment (FIG. 3); for efficiency versus control peptide TAT at low concentration: 1 μM and 10 μM; for cell penetrating activity / translocation efficiency in comparison with TAT (words): HeLa, rhodamine-labelled peptides, overall
Experimental: N-terminus of each peptides was labeled with fluorescence dye, rhodamine and C-terminus was protected. Peptide purity (>95%) was determined by HPLC. Synthesis of the peptides was requested to PEPTRON, Inc.
HeLa cell line (ATCC) was propagated in DMEM (GIBCO) supplemented with 10% FBS (GIBCO) and 100 units/mL penicillin-streptomycin. Cells were grown in a 5% CO2 incubator at 37° C.
(§1) HeLa cells were cultured in 48-well plate until they were 70˜80% grown up before a day of the experiment. The cells were washed with DMEM of 37° C. twice, and TCTP-derived peptides synthesized in Example 2-1) were treated to the culture medium in a dose dependent manner (0, 1, 5, 10, 50, 100 μM), then the cells was incubated for 15 minutes or 2 hours in an CO2 incubator at 37° C.
(§2) After the incubation, the cells were washed in cool PBS three times and immediately measured by a microplate fluorescence reader (BIO-TEK instruments, Inc., Vermont, USA) at emission 530 nm and excitation 590 nm for a measurement of rhodamine of intracellular uptake marker. The sensitivity of reader was set at 100 as a basic mode, but was lowered to 75 if the fluorescent signals were too strong. All experiments were conducted in triplet repeats for reproducibility (FIG. 2 and FIG. 3).

HeLa cells [2] = conditions: treated for 48 hours; concentration not restated, 100 μM implied
Experimental: To confirm whether cell penetrating activity of the peptides of present invention was due to membrane weakness as a result of cytotoxicity, we measured cytotoxicity as follows. HeLa cells were cultured in 96-well plate until they were 70% grown up before a day of the experiment. Control TAT 48-57 and the mutant peptides at concentrations of 0, 1, 10, 100 μM were treated to DMEM supplemented with 10% FBS for 24 and 48 hours. After 2 hours in addition of 10 μl of CCK-8 to each well, absorbance at 450 nm was measured by KC4 plate reader(FIGS. 10, 11 and 12). As a result of toxicity at 100 μM for 24 hours, cytotoxicity of SEQ ID No.: 1, TCTP(1-10) was about 14% compared with control, and cytotoxicities of the other peptides, TCTP-CPP#3, 7 and 8 were insignificant considering standard deviation. When treated for 48 hours, all peptides had no cytotoxicity at 1 and 10 μM while cytotoxicities of TAT, TCTP(1-10), TCTP-CPP#3, 7 and 8 were about 53.8, 28.3, 46.2, 8.2 and 25.6%, respectively. […] Also, all of TCTP-CPP#27-35 had no cytotoxicity at 1 μM and 10 μM but had cytotoxicity at 100 μM.

HeLa cells [3] = assay: Cell penetrating activity of FITC-labelled mutant peptides, mean fluorescence intensity by FACS; conditions: 2 hours, FACS
Experimental: N-terminus of each peptide was labeled with fluorescence dye, FITC and C-terminus was protected. Peptide purity (>95%) was determined by HPLC. Synthesis of the peptides of the present invention was requested to PEPTRON, Inc.
(§3) HeLa cell line was propagated in DMEM supplemented with 10% FBS and 100 units/mL penicillin-streptomycin. Cells were grown in a 5% CO2 incubator at 37° C.
HeLa cells were cultured in 6-well plate until they were 70˜80% grown up before a day of the experiment. The cells were washed with DMEM of 37° C. twice, and TCTP-derived peptides synthesized in Example 5-1) were treated to the culture medium in a dose dependent manner (0, 1, 10, 100 μM), then the cells was incubated for 2 hours in an CO2 incubator at 37° C.,
After the incubation, the cells were washed in cool PBS two times and treated with 1 mg/ml trypsin for 15 min at 37° C. to digest peptides attached on cell membrane and washed in PBS twice again. Then, the cells were analyzed by FACS at emission 510 nm and excitation 530 nm for a measurement of FITC of intracellular uptake marker (FIGS. 7, 8 and 9). Intracellular translocation efficiency of mutant peptides, TCTP-CPP#1-35(SEQ ID Nos.: 20-54) was compared to wild type(WT), TCTP(1-10)(SEQ ID No.: 1) and control peptide, TAT(48-57).

HeLa cells [4] = assay: Intracellular translocation of alanine substituents of TCTP(1-9), microplate fluorescence reader; conditions: for decline in uptake, fluorescence intensity of TCTP (1-9) at 100 μM set to 100%: sensitivity 75 (FIG. 5); for penetrating activity of alanine substituents compared with WT TCTP(1-9): HeLa
Experimental: N-terminus of each peptide was labeled with fluorescence dye, rhodamine and C-terminus was protected. Peptide purity (>95%) was determined by HPLC. Synthesis of peptides of present invention was requested to PEPTRON, Inc.
as §3
as §1, with “4-1)” for “2-1)”, “1,” for “1, 5,”, “10,” for “10, 50,”
as §2, with “reader” for “reader (BIO-TEK instruments, Inc., Vermont, USA)”, “basic,” for “basic mode,”, “if” for “if the”, “were” for “were too”, “5” for “2”, “6).” for “3).”
Meanwhile, when the sensitivity of KC4 plate reader was set down to 75, we could not analyze the result of cell penetrating activity at relatively low concentration of 1 or 10 μM, so sensitivity of reader was fixed at 100 (FIG. 6). At this time, because fluorescence intensity at 100 μM was very strong, we could not express in a same graph.

HeLa cells [5] = assay: Intracellular translocation of TCTP-derived peptide by fluorescence microscope; conditions: 2 hours
Experimental: HeLa cells were treated with TCTP (1-9)(SEQ ID No.: 2) at a concentration of 10 μM and 100 μM by the same method of Example 2-2). […] After washing, cells on cover glass attached slide glass were observed (FIG. 4).

BEAS-2B cell = assay: Cellular uptake of deletion forms of TCTP, western blot of supernatant and lysate; conditions: 15 ug/ml
Experimental: To overexpress each of those deletion forms of TCTP (FIGS. 1a and 1c), pRSET vector that is capable of tagging 6 histidine was employed. Subcloning with DNA sequences corresponding to each deletion forms of TCTP was performed in the multicloning site of the vector. Then, the recombinant expression vector was introduced into E. coli BL21(DE3)(Novagen) or BL21(DE3)pLysS (Novagen). The expression of the deletion forms of TCTP was induced by IPTG (isopropyl (-D-thiogalactoside) for 3 hours, then the protein was isolated and purified by using Ni column which binds to polyhistidine.
BEAS-2B cell was treated with the deletion form of TCTP at the concentration of 15 ug/ml with anti-TCTP antibodies (FIG. 1b).
In addition, it was examined whether TCTP proteins of the present invention could be transferred to cellular interior for a short time, 5 minutes or 30 minutes. The experiment was performed by same method as the above (FIG. 1d).

Molecule: GRKKRRQRRR (Human immunodeficiency virus; (1)..(10) 48-57 amino acid residue of TAT) [TAT(48-57), Control peptide, well-known PTD from HIV-1 TAT, reference compound]
- intracellular translocation, dependence on concentration (HeLa cells [1]): transduced into cell in a dose and time-dependent manner
- concentration at which translocation was saturated (HeLa cells [1]): ≥ 1 µM
- cytotoxicity (HeLa cells [2]): about 53.8%
- mean fluorescence intensity (MFI) relative to WT, MFI of WT at 10 μM set to 1 (HeLa cells [3]; peptide at 10 μM): 6.1 times
- mean fluorescence intensity (MFI) relative to WT (HeLa cells [3]; peptide at 100 μM): 94.75 times

Molecule: MIIYADLIS (mutant peptide based on human sequence; (1)..(9) TCTP(1-9)R5A) [SEQ ID No.: 12]
- decline in uptake, fluorescence intensity of TCTP (1-9) at 100 μM set to 100% (HeLa cells [4]; 2 hours): about 50%
- penetrating activity of alanine substituents compared with WT TCTP(1-9) (HeLa cells [4]): still maintained in translocation activity

Molecule: MIIYRALIS (mutant peptide based on human sequence; (1)..(9) TCTP(1-9)D6A) [SEQ ID No.: 13]
- penetrating activity, fluorescence intensity of TCTP (1-9) at 10 μM set to 1 (HeLa cells [4]; 10 μM, 2 hours, sensitivity 100 (FIG. 6)): 2.5 times
- decline in uptake, fluorescence intensity of TCTP (1-9) at 100 μM set to 100% (HeLa cells [4]; 2 hours): about 50%
- penetrating activity of alanine substituents compared with WT TCTP(1-9) (HeLa cells [4]): still maintained in translocation activity

Molecule: MIIYRDLAS [SEQ ID No.: 14]
- decline in uptake, fluorescence intensity of TCTP (1-9) at 100 μM set to 100% (HeLa cells [4]; 2 hours): about 50%

Molecule: MIIYRDLAS [SEQ ID No.: 15] (mutant peptide based on human sequence; (1)..(9) TCTP(1-9)I8A)
- decline in uptake, fluorescence intensity of TCTP (1-9) at 100 μM set to 100% (HeLa cells [4]; 2 hours): about 50%

Molecule: MIIYRDLIA (mutant peptide based on human sequence; (1)..(9) TCTP(1-9)S9A) [SEQ ID No.: 16]
- decline in uptake, fluorescence intensity of TCTP (1-9) at 100 μM set to 100% (HeLa cells [4]; 2 hours): about 50%
- penetrating activity of alanine substituents compared with WT TCTP(1-9) (HeLa cells [4]): still maintained in translocation activity

Molecule: MIIYRDLIS ((1)..(9) 1-9 amino acid residue of TCTP; listed as Homo sapiens) [SEQ ID No.: 2, Residues of TCTP(1-9)]
- intracellular translocation (fluorescence microscope) (HeLa cells [5]; 10 μM): weakly translocated
- intracellular translocation (fluorescence microscope) (HeLa cells [5]; 100 μM): strongly
- intracellular distribution (fluorescence microscope) (HeLa cells [5]; HeLa): distributed widely in cytoplasm and nucleus of the cell
- intracellular translocation, dependence on concentration (HeLa cells [1]): translocated not in 1-10 μM but in 50-100 μM
- efficiency versus control peptide TAT at low concentration (HeLa cells [1]): lower efficiency than control peptide, TAT
- cell penetrating activity / translocation efficiency in comparison with TAT (words) (HeLa cells [1]): excellent cell penetrating activity in comparison with conventional TAT
- cell penetrating activity / translocation efficiency in comparison with TAT (words) (HeLa cells [1]; listed as TCTP (1-9)): superior ability than well-known PTD, TAT in their translocation efficiency
- cell penetrating activity / translocation efficiency in comparison with TAT (words) (HeLa cells [1]; listed as TCTP(1-9)): more excellent penetrating activity than well-known TAT(47-58) peptide

Molecule: MIIYRDLISH ((1)..(10) 1-10 amino acid residue of TCTP; listed as Homo sapiens) [SEQ ID No.: 1, Residues of TCTP(1-10)]
- intracellular translocation, dependence on concentration (HeLa cells [1]): translocated not in 1-10 μM but in 50-100 μM
- efficiency versus control peptide TAT at low concentration (HeLa cells [1]): lower efficiency than control peptide, TAT
- cell penetrating activity, SEQ ID No.: 1 versus SEQ ID No.: 2 (HeLa cells [1]; 50 μM (FIGS. 2 & 3)): more effective than SEQ ID No.: 2
- concentration at which translocation was saturated (HeLa cells [1]): 50 µM
- cell penetrating activity / translocation efficiency in comparison with TAT (words) (HeLa cells [1]): excellent cell penetrating activity in comparison with conventional TAT
- cell penetrating activity / translocation efficiency in comparison with TAT (words) (HeLa cells [1]; listed as TCTP (1-10)): superior ability than well-known PTD, TAT in their translocation efficiency
- cell penetrating activity compared to that of TAT (HeLa cells [1]; treated for 15 minutes in 50 μM): over 3 times
- cell penetrating activity compared to that of TAT (HeLa cells [1]; treated for 15 minutes in 100 μM): 6 times
- cell penetrating activity compared to that of TAT (HeLa cells [1]; treatment for 2 hours, 50 μM): about 29 times
- cell penetrating activity compared to that of TAT (HeLa cells [1]; treatment for 2 hours, 100 μM): ~30 times

B1: full length TCTP: translationally controlled tumor protein, 172 amino acids, expressed with 6 histidine tag in E. coli (protein, UniProt P13693 1-172, looked up)
chain: MIIYRDLISHDEMFSDIYKIREIADGLCLEVEGKMVSRTEGNIDDSLIGGNASAEGPEGEGTESTVITGVDIVMNHHLQETSFTKEAYKKYIKDYMKSIKGKLEEQRPERVKPFMTGAAEQIKHILANFKNYQFFIGENMNPDGMVALLDYREDGVTPYMIFFKDGLEMEKC
modifications: full-length
- protein in cell supernatant (western blot, anti-TCTP antibodies) (BEAS-2B cell; 24 hours later): disappeared 24 hours later
- protein in cell supernatant (western blot, anti-TCTP antibodies) (BEAS-2B cell; incubation for 1 hour): existed in cell supernatants
